Measured values: patent publication US10744084B2, “Non-specific delayed-type hypersensitivity response to treat herpes simplex virus infection” (Squarex, LLC, priority 2007, dated 2020)

Columns and labels:
herpes labialis = experiment: Treatment of herpes labialis by squaric acid dibutyl ester (thirty patients, subject diaries); assay type: in vivo, human; details: sensitizing dose 2% SADBE in DMSO, then two treatments on lesions in the next two outbreaks
Method: Thirty patients are recruited meeting the following criteria:
In a screening interview, vital signs are recorded, and information is collected on any medications the patient is currently taking, previous and current treatments for cold sores, severity and duration of cold sores.
Upon entering the study, patients are sensitized to squaric acid dibutyl ester (SADBE) by dipping a cotton-tipped swab in a 2% solution of SADBE in DMSO and swabbing a 1 cm^2 area on the forearm. Participants are told then to wait at least 2 weeks for their first treatment.
Throughout the study, the participants are asked to maintain a subject diary, in which they record each day any symptoms they experience, including fever, swelling, pain, redness, itching, burning, the size of any lesions, and any medications taken.
After the 2-week period to allow development of sensitivity to SADBE, upon the beginning of his or her next outbreak (within 72 hours of the first signs of an outbreak), each participant is swabbed at the site of the herpes labialis lesion with a 0.5% solution of SADBE in DMSO.
Upon the next distinct outbreak at least 2 weeks after the previous treatment at visit 2, study diaries are collected. If the diary reflects redness, blistering, or burning greater than 0.5 cm beyond the clinical lesion with the previous SADBE treatment, the dosage of SADBE is decreased to 0.1%. […]

[1] = test system: peripheral blood mononuclear cells; experiment: PBMC proliferation assay with stimulation by heat inactivated KOS HSV-1 particles; assay type: cell-based, human; details: after treatment compared with before treatment; killed KOS HSV-1 particles
From the text: At visit 1, before applying SADBE, a blood sample is collected from each patient for use in a peripheral blood mononuclear cell (PBMC) proliferation assay to test immune response to herpes virus.
Two months after visit 2 (the first treatment application of SADBE to an HSV lesion) if the patient has not experienced a recurrence outbreak after visit 2, or one month after visit 3 (the treatment application of SADBE to a lesion of a second outbreak), a blood sample is collected from the patient. The first, pretreatment, blood sample and the second, posttreatment, blood sample are used to conduct PBMC proliferation assays to test immune response to herpes virus before and after treatment.
Venous blood is collected in heparinized test tubes for mononuclear cell isolation prior to treatment and after treatment at the times described above. […]
KOS HSV-1 virus (American Type Culture Collection) is grown in culture in VERO cells and collected. […] The titer of the virus stock is determined. […]
Results are calculated by averaging optical density of the wells in each of the groups. A stimulation index is calculated to reflect the proliferation in the wells stimulated by killed HSV as compared to the positive and negative controls. The average optical absorbance of the positive controls is set as a stimulation index (SI) value of 100 and the average absorbance of the negative controls as a SI value of 0.

[2] = Presensitization and dose finding: DNCB solution in acetone applied to spots on the forearm, DTH rash/erythema observed; assay type: in vivo, human; details: for erythema on forearm: sensitized subject
From the text: The subject then applied a 0.1%, 0.2%, and 0.3% solutions to separate small spots on the forearm.

[3] = test system: herpes simplex virus type 1; experiment: Treatment of an individual with frequent and severe cold sores: DNCB solution applied at the site of the HSV lesion on the lower lip; assay type: in vivo, human
From the text: The individual treated was one of the inventors. They are a person and was […] at the time of this treatment. The subject suffered from frequent cold sores on the lower lip. The outbreaks typically lasted 7-10 days and frequently longer. The subject had suffered from frequent cold sores most of their life. During the 6 months prior to this treatment, the outbreaks had been almost continuous. After getting over one outbreak, the next outbreak would begin often within a week.
In the morning they washed it off. A mild erythema in the area of the cold sore developed over 2-3 days and lasted a further 5 days, and the cold sore resolved in about 7 days, which was a typical duration for this individual or a slightly shorter duration than normal. […] Each outbreak would begin and completely resolve in one day. […] We think this may be because the immune system was recognizing not just the DNCB but also the herpes virus antigens with this second application. With the greater inflammation, the cold sore outbreak was worse than any of the outbreaks between the first and second DNCB treatments. […] The outbreak seemed to worsen as the inflammation associated with the DTH response worsened, and only lessened when the DTH response subsided.
When the outbreak subsided, the subject went another 6 months without any outbreaks to the present time.
For several months before and for the entire time described herein after the initial DNCB treatment, the subject took no antiviral medicines.

warts = details: intralesional injection together with antigens; differences not statistically significant; cited from earlier work
[4] = first treatment, 0.2% DNCB on lower lip
[5] = second treatment, 0.2% DNCB on lower lip
[6] = third treatment, 0.1% DNCB solution

## CCCCOc1c(OCCCC)c(=O)c1=O [SADBE, squaric acid dibutyl ester]
Herpes labialis
  duration of outbreaks compared with before treatment: last for less time
  number of outbreaks compared with before treatment: fewer outbreaks than before treatment
[1]
  stimulation index of PBMC: increased after treatment

## O=[N+]([O-])c1ccc(Cl)c([N+](=O)[O-])c1 [DNCB, 1-chloro-2,4-dinitrobenzene]
[2]; 0.1% DNCB solution
  erythema on forearm: almost no erythema
[2]; 0.2% DNCB solution
  erythema on forearm: mild but easily seen erythema
[2]; 2% DNCB in acetone, first application, two spots on forearm
  rash on forearm after presensitizing application: No rash developed
[2]; 2% DNCB, second application two weeks after sensitizing dose
  duration of rash on forearm: 3 weeks
[2]; 2% DNCB, two weeks after sensitizing dose, different spots on forearm
  rash on forearm after second application: very strong but localized rash
[3]; 4 weeks after first treatment with 0.2% DNCB
  severity and duration of subsequent outbreaks compared with before: much less severe and of much shorter duration than before
[3]; first treatment, 0.2% DNCB in acetone on lower lip, left on overnight
  erythema in the area of the cold sore: mild erythema
[3]; [4]
  further duration of erythema: 5 days
  time over which erythema developed: 2 to 3 days
  time to resolution of the treated cold sore: about 7 days
[3]; following second DNCB treatment at the site of a lesion
  time without outbreaks: 6 months
[3]; following third treatment (0.1% DNCB), to the present time
  time without outbreaks: 6 months
[3]; next 4 weeks after first treatment with 0.2% DNCB
  frequency of subsequent outbreaks: approximately weekly
[3]; [5]
  duration of the treated outbreak: about 7 days
  severity of the treated outbreak: as severe or even slightly more severe than a typical outbreak
[3]; second treatment, 0.2% DNCB on lower lip, about two months after the first
  inflammation and erythema with the application: more severe than they had been with the first application
[3]; [6]
  DTH response at the cold sore: moderate DTH response
  duration of the treated outbreak: about 10 days

## GM-CSF: granulocyte monocyte colony stimulating factor, cytokine used as immune response enhancer
warts
  fraction of patients responding to treatment compared with antigen alone: larger fraction

## interferon alpha
warts
  fraction of patients responding to treatment compared with antigen alone: larger fraction
